The NIST ThermoML archive (doi:10.1021/je0301895)

Columns and labels:
[1] = Solid-liquid equilibrium temperature; conditions: 101.3 kPa; Crystal
[2] = 298.15 K; 101.33 kPa; Liquid
[3] = xn = mol fraction of the nth substance listed; conditions: 298.15 K, 101 kPa, Liquid

CCCCCCCCN [1-octanamine]
Conditions | Solid-liquid equilibrium temperature [K] | mass density [kg/m3]
[1] | 273.37 | –
[2] | – | 779.95

CCCCCCCCN [1-octanamine] + CCCCCCCCCCCO
[3]
Conditions | excess molar volume [m3/mol]
x2 = 0.0752 | -2.147e-07
x2 = 0.1043 | -2.984e-07
x2 = 0.1334 | -3.833e-07
x2 = 0.2069 | -5.724e-07
x2 = 0.3217 | -8.29e-07
x2 = 0.4007 | -9.437e-07
x2 = 0.4491 | -9.846e-07
x2 = 0.4941 | -1.008e-06
x2 = 0.5463 | -1.008e-06
x2 = 0.5958 | -9.803e-07
x2 = 0.639 | -9.391e-07
x2 = 0.6894 | -8.58e-07
x2 = 0.7458 | -7.411e-07
x2 = 0.7961 | -6.06e-07
x2 = 0.873 | -4.122e-07
x2 = 0.9158 | -2.804e-07

CCCCCCCCN [1-octanamine] + CCCCCCCCCCO
[3]
Conditions | excess molar volume [m3/mol]
x2 = 0.0791 | -2.401e-07
x2 = 0.1302 | -3.963e-07
x2 = 0.2056 | -6.005e-07
x2 = 0.2788 | -7.66e-07
x2 = 0.3263 | -8.612e-07
x2 = 0.3863 | -9.584e-07
x2 = 0.422 | -1.002e-06
x2 = 0.4623 | -1.03e-06
x2 = 0.5138 | -1.042e-06
x2 = 0.5525 | -1.039e-06
x2 = 0.5811 | -1.023e-06
x2 = 0.6153 | -9.952e-07
x2 = 0.6452 | -9.534e-07
x2 = 0.6956 | -8.646e-07
x2 = 0.7565 | -7.349e-07
x2 = 0.8463 | -4.965e-07
x2 = 0.9025 | -3.208e-07
x2 = 0.97 | -1.278e-07

CCCCCCCCN [1-octanamine] + CCCCCCCCCO
[3]
Conditions | excess molar volume [m3/mol]
x2 = 0.0489 | -1.701e-07
x2 = 0.1572 | -4.742e-07
x2 = 0.2155 | -6.354e-07
x2 = 0.2763 | -7.661e-07
x2 = 0.3283 | -8.704e-07
x2 = 0.356 | -9.277e-07
x2 = 0.4125 | -1.005e-06
x2 = 0.4566 | -1.043e-06
x2 = 0.4998 | -1.055e-06
x2 = 0.5326 | -1.057e-06
x2 = 0.5732 | -1.049e-06
x2 = 0.6064 | -1.016e-06
x2 = 0.637 | -9.761e-07
x2 = 0.6602 | -9.511e-07
x2 = 0.7321 | -8.074e-07
x2 = 0.7905 | -6.629e-07
x2 = 0.8753 | -4.313e-07
x2 = 0.961 | -1.661e-07

CCCCCCCCN [1-octanamine] + CCCCCCCCO
[3]
Conditions | excess molar volume [m3/mol]
x2 = 0.043 | -1.921e-07
x2 = 0.13 | -4.625e-07
x2 = 0.2358 | -7.264e-07
x2 = 0.3041 | -8.581e-07
x2 = 0.347 | -9.393e-07
x2 = 0.4158 | -1.024e-06
x2 = 0.4571 | -1.062e-06
x2 = 0.5174 | -1.071e-06
x2 = 0.554 | -1.068e-06
x2 = 0.5877 | -1.052e-06
x2 = 0.6385 | -1.012e-06
x2 = 0.709 | -9.034e-07
x2 = 0.7589 | -8.079e-07
x2 = 0.875 | -5.102e-07
x2 = 0.929 | -3.207e-07
x2 = 0.992 | -7.24e-08

CCCCCCCCCCCO [1-undecanol]
Conditions | Solid-liquid equilibrium temperature [K] | mass density [kg/m3]
[1] | 289.63 | –
[2] | – | 829.34

CCCCCCCCCCO [decan-1-ol]
Conditions | Solid-liquid equilibrium temperature [K] | mass density [kg/m3]
[1] | 278.67 | –
[2] | – | 826.64

CCCCCCCCCO [nonan-1-ol]
Conditions | Solid-liquid equilibrium temperature [K] | mass density [kg/m3]
[1] | 268.1 | –
[2] | – | 824.6

CCCCCCCCO [octan-1-ol]
Conditions | Solid-liquid equilibrium temperature [K] | mass density [kg/m3]
[1] | 258.03 | –
[2] | – | 822.21
